Source: patent publication US9409952B2, “Peptide-compound cyclization method” (Chugai Seiyaku Kabushiki Kaisha, priority 2011, dated 2016)
Like-named read-outs stand apart in the source and are kept apart here. Starred links: 1 amine or outer side, 2 acyl side, 3 side chain; linkers in the order of their positions; H or OH if unused. Positions of bridges follow the written chain, without caps; N, C: chain ends. Non-standard residues stand in square brackets, D forms with d. Residues, ends and D or L forms follow the SMILES beside them. *: point of attachment. NMeF = CN[C@@H](Cc1ccccc1)C(=O)O; NMeGABA = CN(CCCC(=O)[*:2])[*:1]; NMeβAla = CN(CCC(=O)[*:2])[*:1]; NMeL = CN[C@@H](CC(C)C)C(=O)O; NMeV = CN[C@H](C(=O)O)C(C)C; NMeA = CN[C@@H](C)C(=O)O; Piperidide = C1CCN(*)CC1; dNMeA = CN[C@H](C)C(=O)O; Sar = CNCC(=O)O

Experiments:
[1] = PAMPA (parallel artificial membrane permeability assay); type: in vitro ADME; details: PAMPA
Outline: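 Artificial membrane was 10% (w/v) egg lecithin plus 0.5% (w/v) cholesterol in dodecane on a PVDF filter. A 10 mM DMSO stock was added at 0.5% (v/v) to donor buffer (50 mM MOPSO, pH 6.5, 5.0% glycocholic acid). After 18 h at 37 °C, LC/MS or LC/UV gave donor and acceptor levels for Pe.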

[2] = Metabolic stability in human hepatic microsome; type: in vitro ADME; details: microsomes
[3] = membrane permeation rate (Pe), 50 mM MOPSO buffer pH 6.5 with 5.0% glycocholic acid, 37° C., 18 hours, read-out: iPAMPA Pe
[4] = pH 7.4, human hepatic microsome, NADPH(+), read-out: CL NADPH(+)

Row | SMILES | Papp at 18 hours, 50 µM [1, 3] | microsomal CLint at 1 uM [2, 4] | Papp at 18 hours, 50 µM ([1]; pH 6.5) | microsomal CLint at 1 uM ([2]; human, pH 7.4, CL NADPH(+))
1 | CC(C)C[C@H]1C(=O)NCC(=O)N(C)[C@@H](C(C)C)C(=O)N[C@@H]([C@@H](C)O)C(=O)N[C@@H](Cc2ccccc2)C(=O)N[C@H](C(=O)N(C)[C@@H](Cc2ccccc2)C(=O)N(C)[C@@H](Cc2ccccc2)C(=O)N[C@@H](C)C(=O)N2CCCCC2)CC(=O)N(C)CCC(=O)N(C)[C@@H](C(C)C)C(=O)N[C@@H](C(C)C)C(=O)N(C)[C@@H](Cc2ccccc2)C(=O)N1C [DP-390] ([NMeβAla][NMeV]V[NMeF][NMeL]G[NMeV]TFD[NMeF][NMeF]A-Piperidide; lactam N-10) | 3.5 ×10⁻⁶ cm/s | 52 µL/min/mg |  | 
2 | CC(C)C[C@H]1C(=O)N[C@H](C(=O)N(C)[C@@H](Cc2ccccc2)C(=O)N(C)[C@@H](Cc2ccccc2)C(=O)N[C@@H](C)C(=O)N2CCCCC2)CC(=O)N(C)CCC(=O)N[C@@H](C)C(=O)N(C)[C@@H](Cc2ccccc2)C(=O)N(C)[C@@H](C(C)C)C(=O)NCC(=O)N[C@@H]([C@@H](C)O)C(=O)N(C)[C@@H](C)C(=O)N[C@@H](C(C)C)C(=O)N1C [DP-391] ([NMeβAla]A[NMeF][NMeV]GT[NMeA]V[NMeL]D[NMeF][NMeF]A-Piperidide; lactam N-10) | 4.5 ×10⁻⁶ cm/s | 14 µL/min/mg |  | 
3 | CC[C@H](C)[C@@H]1NC(=O)CCCN(C)C(=O)C[C@@H](C(=O)N(C)[C@@H](Cc2ccccc2)C(=O)N(C)[C@@H](Cc2ccccc2)C(=O)N[C@@H](C)C(=O)N2CCCCC2)NC(=O)[C@H](C(C)C)N(C)C(=O)[C@H](CC(C)C)N(C)C(=O)[C@H](C)NC(=O)CN(C)C(=O)[C@H]([C@@H](C)O)NC(=O)[C@H](Cc2ccccc2)N(C)C(=O)[C@H](C)N(C)C1=O [DP-392] ([NMeGABA]I[NMeA][NMeF]T[Sar]A[NMeL][NMeV]D[NMeF][NMeF]A-Piperidide; lactam N-10) | 20 ×10⁻⁶ cm/s | 18 µL/min/mg |  | 
4 | CC[C@H](C)[C@@H]1NC(=O)[C@H](CC(C)C)N(C)C(=O)[C@H](Cc2ccccc2)NC(=O)[C@H](C)N(C)C(=O)C[C@@H](C(=O)N(C)[C@@H](Cc2ccccc2)C(=O)N(C)[C@@H](Cc2ccccc2)C(=O)N[C@@H](C)C(=O)N2CCCCC2)NC(=O)[C@H](C(C)C)N(C)C(=O)[C@H](C)N(C)C(=O)[C@H](C)N(C)C(=O)[C@H]([C@@H](C)O)NC(=O)CN(C)C1=O [DP-394] ([NMeA]F[NMeL]I[Sar]T[NMeA][NMeA][NMeV]D[NMeF][NMeF]A-Piperidide; lactam N-10) | 22 ×10⁻⁶ cm/s | 10 µL/min/mg |  | 
5 | CC[C@H](C)[C@@H]1NC(=O)[C@H](C)N(C)C(=O)[C@H](Cc2ccccc2)N(C)C(=O)[C@H](C)N(C)C(=O)C[C@@H](C(=O)N(C)[C@@H](Cc2ccccc2)C(=O)N(C)[C@@H](Cc2ccccc2)C(=O)N[C@@H](C)C(=O)N2CCCCC2)NC(=O)[C@H](C)N(C)C(=O)[C@H](CC(C)C)N(C)C(=O)[C@H](C)N(C)C(=O)[C@H]([C@@H](C)O)NC(=O)[C@H](C)N(C)C1=O [DP-395] ([NMeA][NMeF][NMeA]I[NMeA]T[NMeA][NMeL][NMeA]D[NMeF][NMeF]A-Piperidide; lactam N-10) | 19 ×10⁻⁶ cm/s | 23 µL/min/mg |  | 
6 | CC(C)C[C@H]1C(=O)NCC(=O)N[C@H](C(=O)N(C)[C@@H](Cc2ccccc2)C(=O)N(C)[C@@H](Cc2ccccc2)C(=O)N[C@@H](C)C(=O)N2CCCCC2)CC(=O)N[C@@H](C)C(=O)N[C@@H]([C@@H](C)O)C(=O)N(C)[C@@H](C)C(=O)N(C)[C@@H](Cc2ccccc2)C(=O)N[C@@H](C(C)C)C(=O)N(C)[C@@H](Cc2ccccc2)C(=O)N1C [DP-396] (AT[NMeA][NMeF]V[NMeF][NMeL]GD[NMeF][NMeF]A-Piperidide; lactam N-9) |  |  | 55 ×10⁻⁶ cm/s | 141 µL/min/mg
7 | CC(C)C[C@H]1C(=O)N[C@@H](C(C)C)C(=O)N(C)[C@@H](Cc2ccccc2)C(=O)N(C)[C@@H](CC(C)C)C(=O)N(C)[C@@H](CC(C)C)C(=O)N[C@H](C(=O)N(C)[C@@H](Cc2ccccc2)C(=O)N(C)[C@@H](Cc2ccccc2)C(=O)N[C@@H](C)C(=O)N2CCCCC2)CC(=O)N(C)CCC(=O)N[C@@H]([C@@H](C)O)C(=O)N(C)[C@@H](C)C(=O)N1C [DP-397] ([NMeβAla]T[NMeA][NMeL]V[NMeF][NMeL][NMeL]D[NMeF][NMeF]A-Piperidide; lactam N-9) |  |  | 11 ×10⁻⁶ cm/s | 92 µL/min/mg
8 | CC(C)C[C@H]1C(=O)N(C)[C@@H](CC(C)C)C(=O)N[C@@H]([C@@H](C)O)C(=O)N(C)[C@@H](C)C(=O)N[C@H](C(=O)N(C)[C@@H](Cc2ccccc2)C(=O)N(C)[C@@H](Cc2ccccc2)C(=O)N[C@@H](C)C(=O)N2CCCCC2)CC(=O)N(C)CCC(=O)N(C)CC(=O)N(C)[C@@H](Cc2ccccc2)C(=O)N[C@@H](C)C(=O)N1C [DP-398] ([NMeβAla][Sar][NMeF]A[NMeL][NMeL]T[NMeA]D[NMeF][NMeF]A-Piperidide; lactam N-9) | 24 ×10⁻⁶ cm/s | 123 µL/min/mg |  | 
9 | CC(C)C[C@H]1C(=O)N[C@@H](C(C)C)C(=O)N(C)[C@@H](C)C(=O)N(C)[C@@H](C)C(=O)N[C@@H]([C@@H](C)O)C(=O)N(C)[C@@H](C)C(=O)N[C@H](C(=O)N(C)[C@@H](Cc2ccccc2)C(=O)N(C)[C@@H](Cc2ccccc2)C(=O)N[C@@H](C)C(=O)N2CCCCC2)CC(=O)N(C)[C@H](C)C(=O)N(C)[C@@H](Cc2ccccc2)C(=O)N1C [DP-400] ([dNMeA][NMeF][NMeL]V[NMeA][NMeA]T[NMeA]D[NMeF][NMeF]A-Piperidide; lactam N-9) | 15 ×10⁻⁶ cm/s | 24 µL/min/mg |  | 
10 | CC(C)C[C@H]1C(=O)NCC(=O)N[C@H](C(=O)N(C)[C@@H](Cc2ccccc2)C(=O)N(C)[C@@H](Cc2ccccc2)C(=O)N[C@@H](C)C(=O)N2CCCCC2)CC(=O)N[C@H](C(C)C)C(=O)N[C@@H]([C@@H](C)O)C(=O)N(C)[C@@H](C)C(=O)N(C)[C@@H](Cc2ccccc2)C(=O)N[C@@H](C(C)C)C(=O)N(C)[C@@H](Cc2ccccc2)C(=O)N1C [DP-401] ([dV]T[NMeA][NMeF]V[NMeF][NMeL]GD[NMeF][NMeF]A-Piperidide; lactam N-9) |  |  | 8.6 ×10⁻⁶ cm/s | 145 µL/min/mg
11 | CC(C)C[C@H]1C(=O)NCC(=O)N(C)[C@@H](Cc2ccccc2)C(=O)N(C)[C@@H](Cc2ccccc2)C(=O)N[C@@H]([C@@H](C)O)C(=O)N(C)[C@@H](C)C(=O)N[C@H](C(=O)N(C)[C@@H](Cc2ccccc2)C(=O)N(C)[C@@H](Cc2ccccc2)C(=O)N[C@@H](C)C(=O)N2CCCCC2)CC(=O)N(C)CCCC(=O)N[C@@H](C(C)C)C(=O)N1C [DP-402] ([NMeGABA]V[NMeL]G[NMeF][NMeF]T[NMeA]D[NMeF][NMeF]A-Piperidide; lactam N-9) |  |  | 24 ×10⁻⁶ cm/s | 185 µL/min/mg
12 | CC(C)C[C@H]1C(=O)N(C)[C@@H](C)C(=O)N(C)[C@@H](CC(C)C)C(=O)N[C@H](C(=O)N(C)[C@@H](Cc2ccccc2)C(=O)N(C)[C@@H](Cc2ccccc2)C(=O)N[C@@H](C)C(=O)N2CCCCC2)CC(=O)N(C)CCCC(=O)N[C@@H]([C@@H](C)O)C(=O)N(C)[C@@H](Cc2ccccc2)C(=O)N(C)[C@@H](CC(C)C)C(=O)N[C@@H](C(C)C)C(=O)N1C [DP-403] ([NMeGABA]T[NMeF][NMeL]V[NMeL][NMeA][NMeL]D[NMeF][NMeF]A-Piperidide; lactam N-9) | 18 ×10⁻⁶ cm/s | 57 µL/min/mg |  | 
